Measured values published in ChEMBL document CHEMBL5338754, “Identification of Binding Sites in the Nucleotide-Binding Domain of P-Glycoprotein for a Potent and Nontoxic Modulator, the Amine-Containing Monomeric Flavonoid FM04” (J Med Chem, 2023).

Assays:
[1] = molecular target: T1, ATP-dependent translocase ABCB1 (Homo sapiens, UniProt P08183); assay: Negative allosteric modulator activity at P-gp in human LCC6MDR cells overexpressing P-gp assessed as reversal of P-gp mediated paclitaxel resistance activity by measuring relative fold at 1 uM incubated for 5 days by MTS assay; type: cell-based; details: 120 h, time 5 day
T1 sequence (P08183 whole entry): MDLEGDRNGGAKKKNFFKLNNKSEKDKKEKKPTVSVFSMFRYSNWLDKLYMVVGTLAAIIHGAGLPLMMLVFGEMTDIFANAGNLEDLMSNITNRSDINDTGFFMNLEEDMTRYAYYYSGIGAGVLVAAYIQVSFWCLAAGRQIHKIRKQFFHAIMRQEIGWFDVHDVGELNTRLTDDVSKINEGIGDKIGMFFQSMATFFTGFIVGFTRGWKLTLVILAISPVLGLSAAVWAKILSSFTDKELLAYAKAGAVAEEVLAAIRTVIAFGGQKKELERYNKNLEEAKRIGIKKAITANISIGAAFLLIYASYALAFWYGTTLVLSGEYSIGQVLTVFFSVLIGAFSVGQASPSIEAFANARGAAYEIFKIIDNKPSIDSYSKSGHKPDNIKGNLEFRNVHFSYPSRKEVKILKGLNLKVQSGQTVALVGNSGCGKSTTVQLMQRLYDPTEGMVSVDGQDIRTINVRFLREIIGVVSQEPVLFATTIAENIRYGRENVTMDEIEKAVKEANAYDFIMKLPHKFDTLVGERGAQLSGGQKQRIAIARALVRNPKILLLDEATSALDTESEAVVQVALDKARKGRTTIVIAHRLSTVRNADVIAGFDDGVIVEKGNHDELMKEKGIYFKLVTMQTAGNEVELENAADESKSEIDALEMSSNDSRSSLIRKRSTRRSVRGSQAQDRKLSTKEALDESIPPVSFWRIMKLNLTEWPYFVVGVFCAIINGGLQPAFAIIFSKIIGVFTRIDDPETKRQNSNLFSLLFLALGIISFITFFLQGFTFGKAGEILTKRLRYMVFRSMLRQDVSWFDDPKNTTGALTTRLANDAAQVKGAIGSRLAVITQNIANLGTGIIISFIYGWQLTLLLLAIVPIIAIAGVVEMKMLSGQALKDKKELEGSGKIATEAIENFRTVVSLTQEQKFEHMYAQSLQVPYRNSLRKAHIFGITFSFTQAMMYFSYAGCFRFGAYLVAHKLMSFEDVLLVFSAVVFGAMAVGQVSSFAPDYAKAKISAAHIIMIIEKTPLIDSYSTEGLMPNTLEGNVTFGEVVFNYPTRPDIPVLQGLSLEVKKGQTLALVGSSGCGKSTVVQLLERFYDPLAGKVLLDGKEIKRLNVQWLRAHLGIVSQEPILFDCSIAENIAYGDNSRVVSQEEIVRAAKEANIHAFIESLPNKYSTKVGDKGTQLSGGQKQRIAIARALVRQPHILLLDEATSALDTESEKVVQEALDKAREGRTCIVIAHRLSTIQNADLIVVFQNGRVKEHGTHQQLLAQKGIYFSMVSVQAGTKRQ

[2] = molecular target: T1, ATP-dependent translocase ABCB1; assay: Negative allosteric modulator activity at P-gp in human LCC6MDR cells assessed as increase in intracellular doxorubicin accumulation using doxorubicin as substrate incubated for 150 mins by microplate reader assay; type: cell-based; details: 2.5 h
[3] = molecular target: T1, ATP-dependent translocase ABCB1; assay: Binding affinity to human P-glycoprotein expressed in LCC6MDR cells assessed as stabilization of protein by measuring fluorescence at 1 uM incubated for 1 hr by Western blotting analysis; type: cell-based
[4] = molecular target: T1, ATP-dependent translocase ABCB1; assay: Binding affinity to P-glycoprotein in human LCC6MDR cells assessed as stabilization of protein by measuring fluorescence at 1 uM incubated for 1 hr by Western blotting analysis; type: cell-based
[5] = molecular target: T2, ATP-dependent translocase ABCB1 (Mus musculus, UniProt P06795); assay: Binding affinity to mouse P-glycoprotein expressed in Pichia pastoris assessed as stabilization of protein by measuring fluorescence at 1000 uM incubated for 2 hr by Streptavidin-pull down blotting assay
T2 sequence (P06795 whole entry): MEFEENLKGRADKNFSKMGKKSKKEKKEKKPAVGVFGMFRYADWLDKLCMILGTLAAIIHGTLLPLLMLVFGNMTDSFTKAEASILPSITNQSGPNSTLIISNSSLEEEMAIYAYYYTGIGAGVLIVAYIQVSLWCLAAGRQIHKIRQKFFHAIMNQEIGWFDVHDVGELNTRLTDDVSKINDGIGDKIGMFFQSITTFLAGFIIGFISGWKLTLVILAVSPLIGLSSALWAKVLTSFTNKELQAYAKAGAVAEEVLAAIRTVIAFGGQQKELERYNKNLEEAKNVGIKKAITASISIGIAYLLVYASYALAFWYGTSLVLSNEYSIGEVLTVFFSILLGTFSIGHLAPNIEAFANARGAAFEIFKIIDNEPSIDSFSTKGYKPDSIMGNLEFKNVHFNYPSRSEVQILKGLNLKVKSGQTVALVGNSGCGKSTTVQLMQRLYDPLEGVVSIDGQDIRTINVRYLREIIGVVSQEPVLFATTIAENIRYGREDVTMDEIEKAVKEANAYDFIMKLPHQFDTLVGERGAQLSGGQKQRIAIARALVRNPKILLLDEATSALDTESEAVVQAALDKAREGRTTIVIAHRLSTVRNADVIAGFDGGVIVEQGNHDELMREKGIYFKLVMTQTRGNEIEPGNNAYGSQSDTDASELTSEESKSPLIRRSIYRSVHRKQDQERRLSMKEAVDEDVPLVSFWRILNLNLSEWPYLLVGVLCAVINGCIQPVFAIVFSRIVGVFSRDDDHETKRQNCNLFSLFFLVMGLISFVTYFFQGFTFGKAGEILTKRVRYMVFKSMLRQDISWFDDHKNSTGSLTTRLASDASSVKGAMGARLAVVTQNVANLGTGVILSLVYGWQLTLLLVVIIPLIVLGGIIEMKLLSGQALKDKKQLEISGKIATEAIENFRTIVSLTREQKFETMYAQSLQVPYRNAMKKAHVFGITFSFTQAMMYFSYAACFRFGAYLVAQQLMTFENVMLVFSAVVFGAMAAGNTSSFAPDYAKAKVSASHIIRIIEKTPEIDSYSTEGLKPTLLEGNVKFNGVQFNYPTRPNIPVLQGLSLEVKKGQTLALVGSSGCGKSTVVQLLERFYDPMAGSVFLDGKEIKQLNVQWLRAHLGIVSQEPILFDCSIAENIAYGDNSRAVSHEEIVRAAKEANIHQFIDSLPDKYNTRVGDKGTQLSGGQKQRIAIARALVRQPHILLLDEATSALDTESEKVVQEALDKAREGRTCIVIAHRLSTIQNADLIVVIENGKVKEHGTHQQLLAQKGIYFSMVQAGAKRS

[6] = molecular target: T2, ATP-dependent translocase ABCB1; assay: Displacement of FM04 from mouse P-glycoprotein expressed in Pichia pastoris at 1 uM by competitive binding assay
[7] = molecular target: T1, ATP-dependent translocase ABCB1; assay: Displacement of FM-04 from human P-glycoprotein expressed in LCC6MDR cells at 1 uM by competitive binding assay; type: cell-based
[8] = molecular target: T2, ATP-dependent translocase ABCB1; assay: Binding affinity to mouse P-glycoprotein expressed in Pichia pastoris assessed as stabilization of protein by measuring fluorescence at 1 uM by Western blotting analysis
[9] = molecular target: T1, ATP-dependent translocase ABCB1; assay: Binding affinity to human P-glycoprotein expressed in LCC6MDR cells assessed as stabilization of protein by measuring fluorescence at 0.1 to 1 uM by Western blotting analysis; type: cell-based; details: dose 0.1-1 µM
[10] = molecular target: T2, ATP-dependent translocase ABCB1; assay: Binding affinity to biotin-labeled mouse P-glycoprotein expressed in Pichia pastoris assessed as stabilization of protein by measuring fluorescence at 100 uM incubated for 2 hr by Streptavidin-HRP blotting assay
[11] = molecular target: T2, ATP-dependent translocase ABCB1; assay: Binding affinity to mouse P-glycoprotein expressed in Pichia pastoris assessed as stabilization of protein by measuring fluorescence at 100 uM incubated for 2 hr by Streptavidin-pull down blotting assay
[12] = molecular target: T2, ATP-dependent translocase ABCB1; assay: Binding affinity to mouse P-glycoprotein expressed in Pichia pastoris assessed as stabilization of protein by measuring fluorescence at 100 uM incubated for 2 hr by Streptavidin-HRP blotting assay

Row | Compound | fold change (FC) [1] | Activity [3] | Activity [4] | further results
1 | O=c1cc(-c2ccc(OCCOCCOCCOCCOc3ccc(-c4cc(=O)c5c(O)cc(O)cc5o4)cc3)cc2)oc2cc(O)cc(O)c12 | 11 | – | – | –
2 | O=c1cc(-c2ccc(OCCOCCN(CCOCCOc3ccc(-c4cc(=O)c5ccccc5o4)cc3)Cc3ccccc3)cc2)oc2ccccc12 | 68 | – | – | –
3 | O=c1cc(-c2ccc(OCCOCCOCCOCCOc3ccc(-c4cc(=O)c5ccccc5o4)cc3)cc2)oc2ccccc12 | 28 | – | – | –
4 | O=c1cc(-c2ccc(OCCOCCNCc3ccc(C4(C(F)(F)F)N=N4)cc3)cc2)oc2ccccc12 | 56.3 | – | – | Activity [2]: Active
5 | C#CCN(CCOCCOc1ccc(-c2cc(=O)c3ccccc3o2)cc1)Cc1ccc(C2(C(F)(F)F)N=N2)cc1 | 2.3 | Not Active | Not Active | –
6 | O=c1cc(-c2ccc(OCCOCCN(Cc3ccc(C4(C(F)(F)F)N=N4)cc3)Cc3ccc(C4(C(F)(F)F)N=N4)cc3)cc2)oc2ccccc12 | 0.8 | – | – | –
7 | C#CCOc1cccc2oc(-c3ccc(OCCOCCNCc4ccc(C5(C(F)(F)F)N=N5)cc4)cc3)cc(=O)c12 | 92.6 | Active | Not Active | Activity [5]: Active; Activity [6]: Not Active; Activity [2]: Active; Activity [7]: Not Active; Activity [8]: Active; Activity [9]: Dose-Dependent Effect; Activity [10]: Active; Activity [11]: Active; Activity [12]: Not Active
8 | C#CCNc1cc(C)cc2c(=O)cc(-c3ccc(OCCOCCNCc4ccc(C5(C(F)(F)F)N=N5)cc4)cc3)oc12 | 0.5 | Not Active | Not Active | –
9 | C#CCNc1cc(C)cc2c(=O)cc(-c3ccc(OCCOCCN(Cc4ccc(C5(C(F)(F)F)N=N5)cc4)Cc4ccc(C5(C(F)(F)F)N=N5)cc4)cc3)oc12 | 0.4 | – | – | –
10 | [N-]=[N+]=NCc1cc(CNCCOCCOc2ccc(-c3cc(=O)c4ccccc4o3)cc2)cc(N=[N+]=[N-])c1 | 61.7 | Active | Not Active | Activity [2]: Active
11 | O=c1cc(-c2ccc(O)cc2)oc2cc(O)cc(O)c12 [APIGENIN] | 1 | – | – | –
